From patent EP2305680A2, “Novel salts of (1S,4R)-cis-4-[2-amino-6-(cyclopropylamino)-9H-purin-9-yl]-2-cyclopentene-1-methanol” (AUROBINDO PHARMA LIMITED, priority 2009, dated 2011)
Converted amounts (≈) assume the structure as drawn. Where two headings read alike, the source gives them in different places.

Experiment: saturation solubility in various solvent systems
Format: physicochemical
Procedure: Solubility is the property of a solid, liquid, or gaseous chemical substance called solute to dissolve in a liquid solvent to form a homogeneous solution of the solute in the solvent. […] The saturation solubility of the compounds according to the present invention is measured in various solvent systems including simulated gastric fluid, pH 4.5 buffer, pH 6.8 buffer solution and pH 7.2 buffer solution. The compounds according to the present invention show better solubility as compared to abacavir sulphate in all solvent systems. Table- 1: Comparison of saturation solubility of Abacavir malonate with Abacavir sulphate (marketed salt)

[1] = solvent: pH 4.5 Sodium acetate buffer
[2] = solvent: pH 6.8 Phosphate buffer
[3] = solvent: pH 7.2 Phosphate buffer

| Solubility (0.01n hcl, solvent: O.O1N HC1, read-out: Solubility) | Solubility (0.1n hcl, simulated gastric fluid, thermodynamic from solid, solvent: O.1N HC1, read-out: Solubility) | Solubility (solvent: Water) | Solubility [1] | Solubility [2] | Solubility [3] | Solubility (0.1 N HCl, simulated gastric fluid, thermodynamic from solid, solvent: O.1N HC1, read-out: Solubility) | Solubility (water, thermodynamic from solid, solvent: Water, read-out: Solubility) | Structure (SMILES) |
| --- | --- | --- | --- | --- | --- | --- | --- | --- |
| 733 mg/mL (≈ 2560 mM) | 368 mg/mL (≈ 1290 mM) | 116.2 mg/mL (≈ 406 mM) | 403.6 mg/mL (≈ 1410 mM) | 425.2 mg/mL (≈ 1480 mM) | 453.5 mg/mL (≈ 1580 mM) |  |  | Nc1nc(NC2CC2)c2ncn([C@H]3C=C[C@@H](CO)C3)c2n1 [Abacavir Malonate, (1S,4R)-4-[2-AMINO-(6-CYCLOPROPYLAMINO)-9H-PURIN-9-YL]-2-CYCLOPENTENE-1-METHANOL MALONATE] |
|  |  |  | 112.6 mg/mL | 89.5 mg/mL | 124.0 mg/mL | 93.1 mg/mL | 89.2 mg/mL | Nc1nc(NC2CC2)c2ncn([C@H]3C=C[C@@H](CO)C3)c2n1 [Abacavir Sulphate, reference compound] |
